Target: Bmt5 (Saccharomyces cerevisiae, UniProt P40493)
Assay: biochemical

Sequence of Bmt5 (P40493 whole entry): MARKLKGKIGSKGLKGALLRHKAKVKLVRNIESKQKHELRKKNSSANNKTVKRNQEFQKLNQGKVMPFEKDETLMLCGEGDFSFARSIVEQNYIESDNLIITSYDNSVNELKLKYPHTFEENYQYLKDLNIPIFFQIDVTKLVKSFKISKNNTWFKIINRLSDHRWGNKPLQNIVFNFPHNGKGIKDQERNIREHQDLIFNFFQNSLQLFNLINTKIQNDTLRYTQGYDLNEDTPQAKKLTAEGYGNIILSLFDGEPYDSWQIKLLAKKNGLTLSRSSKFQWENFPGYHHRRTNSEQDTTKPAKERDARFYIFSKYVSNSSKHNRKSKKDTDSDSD

Structure (SMILES): C[S+](CC[C@H](N)C(=O)O)C[C@H]1O[C@@H](n2cnc3c(N)ncnc32)[C@H](O)[C@@H]1O (stereo partly shown) [SAM]
- Kd: 109 ± 10.8 µM

Reference: PMC3950682 (Nucleic Acids Research, 2013)
